How the values were obtained:
[1] = target: T1, RNF213 (mouse, full-length) (Mus musculus, UniProt E9Q555); assay: cryo-EM structure; type: binding; settings: co-purified ATP, Mg; bound to catalytically inactive AAA2, contacts from AAA3
T1 construct: full length, 5148 residues, 584 kDa, C-terminal Gly3-His10 tag kept; codon-optimised, High Five insect cells; monomer; modelled residues 476-5148

[2] = target: T2, RNF213 (mouse, full-length) (Mus musculus, UniProt E9Q555, R4753K); assay: NADH-coupled ATPase assay; type: biochemical; settings: 2 mM ATP, equimolar MgCl2 added, pH 7.2, 30 C; Moyamoya founder mutant (human R4810K); rate only in figure
T2 construct: full length, 5148 residues, 584 kDa, C-terminal Gly3-His10 tag kept; codon-optimised, High Five insect cells; monomer; modelled residues 476-5148
T2 sequence (E9Q555 whole entry R4753K, the tested form may be a part): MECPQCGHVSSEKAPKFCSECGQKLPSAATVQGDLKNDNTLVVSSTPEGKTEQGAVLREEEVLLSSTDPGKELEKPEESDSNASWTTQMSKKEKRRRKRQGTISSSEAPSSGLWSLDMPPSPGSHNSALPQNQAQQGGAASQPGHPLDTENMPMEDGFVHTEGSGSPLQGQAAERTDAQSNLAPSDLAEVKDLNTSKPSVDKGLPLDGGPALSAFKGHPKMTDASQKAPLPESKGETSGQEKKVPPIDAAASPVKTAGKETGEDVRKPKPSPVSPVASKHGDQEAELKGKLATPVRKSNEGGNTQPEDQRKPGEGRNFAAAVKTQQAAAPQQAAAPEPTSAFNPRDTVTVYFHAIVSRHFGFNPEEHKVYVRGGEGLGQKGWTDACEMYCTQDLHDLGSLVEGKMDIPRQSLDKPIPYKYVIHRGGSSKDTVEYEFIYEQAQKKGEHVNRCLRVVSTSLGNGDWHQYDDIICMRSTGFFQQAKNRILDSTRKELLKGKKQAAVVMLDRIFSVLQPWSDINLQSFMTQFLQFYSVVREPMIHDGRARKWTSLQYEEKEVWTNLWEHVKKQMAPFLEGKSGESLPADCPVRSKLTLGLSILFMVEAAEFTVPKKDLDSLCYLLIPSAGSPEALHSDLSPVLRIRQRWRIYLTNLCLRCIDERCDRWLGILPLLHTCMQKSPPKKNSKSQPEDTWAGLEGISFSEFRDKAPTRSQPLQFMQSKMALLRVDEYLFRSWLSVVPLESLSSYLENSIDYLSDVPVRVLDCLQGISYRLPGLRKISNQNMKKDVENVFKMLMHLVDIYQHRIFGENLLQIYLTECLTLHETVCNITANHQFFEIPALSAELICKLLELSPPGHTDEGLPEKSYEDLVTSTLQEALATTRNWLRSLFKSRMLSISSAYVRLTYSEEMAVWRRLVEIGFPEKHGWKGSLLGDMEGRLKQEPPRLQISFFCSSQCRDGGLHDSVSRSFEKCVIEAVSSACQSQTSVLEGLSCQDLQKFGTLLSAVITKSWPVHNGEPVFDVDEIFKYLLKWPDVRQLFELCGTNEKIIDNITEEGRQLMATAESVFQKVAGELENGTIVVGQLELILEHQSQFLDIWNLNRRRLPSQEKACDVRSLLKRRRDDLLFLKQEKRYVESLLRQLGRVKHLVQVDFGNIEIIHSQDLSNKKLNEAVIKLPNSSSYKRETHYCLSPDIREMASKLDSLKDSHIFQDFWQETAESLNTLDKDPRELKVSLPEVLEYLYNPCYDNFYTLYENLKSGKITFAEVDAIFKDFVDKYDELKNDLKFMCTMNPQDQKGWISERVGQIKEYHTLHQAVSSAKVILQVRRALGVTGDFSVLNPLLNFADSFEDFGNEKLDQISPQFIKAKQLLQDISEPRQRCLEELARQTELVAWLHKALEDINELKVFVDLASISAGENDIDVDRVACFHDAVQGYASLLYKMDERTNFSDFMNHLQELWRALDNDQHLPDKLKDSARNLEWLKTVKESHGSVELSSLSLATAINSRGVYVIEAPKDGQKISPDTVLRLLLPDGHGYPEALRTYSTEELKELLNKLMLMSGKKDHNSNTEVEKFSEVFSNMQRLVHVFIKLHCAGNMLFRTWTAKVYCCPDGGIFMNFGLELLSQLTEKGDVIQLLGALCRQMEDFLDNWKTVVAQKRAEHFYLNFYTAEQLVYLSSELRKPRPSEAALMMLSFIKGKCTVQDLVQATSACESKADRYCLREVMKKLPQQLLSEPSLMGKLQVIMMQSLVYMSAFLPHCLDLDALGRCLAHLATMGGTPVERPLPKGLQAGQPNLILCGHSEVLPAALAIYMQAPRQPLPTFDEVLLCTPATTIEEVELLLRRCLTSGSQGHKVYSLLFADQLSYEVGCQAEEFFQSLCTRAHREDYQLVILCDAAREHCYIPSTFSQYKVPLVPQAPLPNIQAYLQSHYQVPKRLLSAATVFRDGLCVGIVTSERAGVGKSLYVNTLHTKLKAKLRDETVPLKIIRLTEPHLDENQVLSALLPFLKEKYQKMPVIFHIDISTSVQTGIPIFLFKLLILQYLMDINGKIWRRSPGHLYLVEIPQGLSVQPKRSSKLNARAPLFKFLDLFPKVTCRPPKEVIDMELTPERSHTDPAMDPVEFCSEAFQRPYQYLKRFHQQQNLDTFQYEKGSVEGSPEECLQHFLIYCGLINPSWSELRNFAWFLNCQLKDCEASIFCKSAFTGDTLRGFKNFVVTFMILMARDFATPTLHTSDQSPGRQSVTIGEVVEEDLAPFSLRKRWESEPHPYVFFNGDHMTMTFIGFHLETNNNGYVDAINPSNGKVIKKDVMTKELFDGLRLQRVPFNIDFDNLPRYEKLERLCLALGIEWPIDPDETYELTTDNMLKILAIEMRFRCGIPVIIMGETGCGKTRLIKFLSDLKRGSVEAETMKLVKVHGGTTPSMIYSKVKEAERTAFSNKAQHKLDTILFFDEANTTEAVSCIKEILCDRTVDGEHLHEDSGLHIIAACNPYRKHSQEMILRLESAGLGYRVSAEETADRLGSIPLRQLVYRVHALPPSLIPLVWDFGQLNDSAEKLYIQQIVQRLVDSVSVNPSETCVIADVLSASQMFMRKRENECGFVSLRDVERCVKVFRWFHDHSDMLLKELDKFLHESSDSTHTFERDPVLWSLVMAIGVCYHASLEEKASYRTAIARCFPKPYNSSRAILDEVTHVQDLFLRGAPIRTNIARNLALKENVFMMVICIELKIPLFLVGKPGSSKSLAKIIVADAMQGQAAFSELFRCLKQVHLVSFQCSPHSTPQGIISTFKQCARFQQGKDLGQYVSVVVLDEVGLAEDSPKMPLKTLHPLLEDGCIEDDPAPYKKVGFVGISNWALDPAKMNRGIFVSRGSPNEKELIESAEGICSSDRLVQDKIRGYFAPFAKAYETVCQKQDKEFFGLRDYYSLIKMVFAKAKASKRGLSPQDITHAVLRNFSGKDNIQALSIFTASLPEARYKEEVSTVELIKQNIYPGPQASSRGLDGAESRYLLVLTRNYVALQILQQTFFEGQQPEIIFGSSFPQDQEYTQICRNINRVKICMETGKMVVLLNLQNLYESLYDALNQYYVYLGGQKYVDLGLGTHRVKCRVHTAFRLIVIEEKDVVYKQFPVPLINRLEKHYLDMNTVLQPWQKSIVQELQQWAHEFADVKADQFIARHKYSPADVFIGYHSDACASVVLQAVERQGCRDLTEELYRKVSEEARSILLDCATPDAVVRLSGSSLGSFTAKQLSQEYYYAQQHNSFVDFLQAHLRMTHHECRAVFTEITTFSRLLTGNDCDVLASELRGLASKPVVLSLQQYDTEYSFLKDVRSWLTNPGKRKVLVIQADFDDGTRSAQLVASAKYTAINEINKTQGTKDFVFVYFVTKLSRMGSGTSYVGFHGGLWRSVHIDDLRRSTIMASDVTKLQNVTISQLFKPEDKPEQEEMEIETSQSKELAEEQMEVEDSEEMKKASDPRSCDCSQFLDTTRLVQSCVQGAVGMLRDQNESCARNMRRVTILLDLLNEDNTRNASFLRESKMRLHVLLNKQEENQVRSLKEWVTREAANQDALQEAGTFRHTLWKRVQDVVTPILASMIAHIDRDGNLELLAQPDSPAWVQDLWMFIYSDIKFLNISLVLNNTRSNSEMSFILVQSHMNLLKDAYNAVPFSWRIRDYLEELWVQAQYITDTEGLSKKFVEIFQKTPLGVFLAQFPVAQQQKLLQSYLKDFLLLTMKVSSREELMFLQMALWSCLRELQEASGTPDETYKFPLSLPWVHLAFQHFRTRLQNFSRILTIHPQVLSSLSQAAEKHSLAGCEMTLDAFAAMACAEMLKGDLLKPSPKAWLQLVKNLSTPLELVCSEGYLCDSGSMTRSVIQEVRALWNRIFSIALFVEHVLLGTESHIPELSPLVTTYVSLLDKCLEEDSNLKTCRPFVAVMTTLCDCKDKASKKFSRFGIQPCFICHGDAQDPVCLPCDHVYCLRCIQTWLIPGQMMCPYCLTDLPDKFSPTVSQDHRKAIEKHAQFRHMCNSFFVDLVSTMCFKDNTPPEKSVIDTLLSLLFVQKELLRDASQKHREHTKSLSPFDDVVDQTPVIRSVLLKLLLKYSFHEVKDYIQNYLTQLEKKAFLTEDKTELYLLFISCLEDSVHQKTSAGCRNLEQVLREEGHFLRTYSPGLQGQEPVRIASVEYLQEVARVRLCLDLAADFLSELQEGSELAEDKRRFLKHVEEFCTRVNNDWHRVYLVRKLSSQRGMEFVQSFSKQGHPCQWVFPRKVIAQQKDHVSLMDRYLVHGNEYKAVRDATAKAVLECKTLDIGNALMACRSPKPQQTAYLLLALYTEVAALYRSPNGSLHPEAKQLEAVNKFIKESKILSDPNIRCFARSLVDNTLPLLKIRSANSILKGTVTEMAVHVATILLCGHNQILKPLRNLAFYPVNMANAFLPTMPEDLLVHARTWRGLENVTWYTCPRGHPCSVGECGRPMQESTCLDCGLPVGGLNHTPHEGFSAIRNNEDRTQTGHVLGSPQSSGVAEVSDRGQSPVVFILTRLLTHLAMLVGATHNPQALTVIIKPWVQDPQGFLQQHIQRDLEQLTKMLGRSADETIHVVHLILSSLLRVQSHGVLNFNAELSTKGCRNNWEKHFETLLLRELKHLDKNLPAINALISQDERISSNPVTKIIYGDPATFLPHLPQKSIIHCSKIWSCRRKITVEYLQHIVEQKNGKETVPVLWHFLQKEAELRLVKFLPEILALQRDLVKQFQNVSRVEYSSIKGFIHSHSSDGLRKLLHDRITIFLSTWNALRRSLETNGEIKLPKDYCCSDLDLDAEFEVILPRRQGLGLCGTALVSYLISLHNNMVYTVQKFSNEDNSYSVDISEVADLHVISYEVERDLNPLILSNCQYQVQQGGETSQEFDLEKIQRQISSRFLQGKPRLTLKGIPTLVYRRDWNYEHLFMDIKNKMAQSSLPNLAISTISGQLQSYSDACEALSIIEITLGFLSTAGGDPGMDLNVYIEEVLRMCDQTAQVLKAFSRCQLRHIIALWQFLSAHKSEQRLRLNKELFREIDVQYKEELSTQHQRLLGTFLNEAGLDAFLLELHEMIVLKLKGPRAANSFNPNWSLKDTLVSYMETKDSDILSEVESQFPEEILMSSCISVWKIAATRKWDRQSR

[3] = target: T1, RNF213 (mouse, full-length); assay: NADH-coupled ATPase assay; type: biochemical; settings: 2 mM ATP, equimolar MgCl2 added, pH 7.2, 30 C; AAA3 and AAA4 proposed competent sites; rate only in figure

T1 sequence (E9Q555 whole entry, the tested form may be a part): as the sequence (E9Q555 whole entry R4753K, the tested form may be a part) above, with K4753R counted along it

Nc1ncnc2c1ncn2[C@@H]1O[C@H](COP(=O)(O)OP(=O)(O)OP(=O)(O)O)[C@@H](O)[C@H]1O [ATP]
cryo-EM structure [1]: unambiguously revealed a co-purified ATP molecule that is bound to AAA2
NADH-coupled ATPase assay [2]: does not significantly alter the enzymatic properties of RNF213 in vitro
NADH-coupled ATPase assay [3]: ATPase activity of RNF213 is an order of magnitude lower than that of a processive
